The text below walks through data of ChEMBL document CHEMBL1151660, “Carotenoids of tunicates. III. The structural elucidation of two new marine carotenoids, amarouciaxanthin A and B” (1985).

One assay relates to P388. Description: Cytotoxicity against mouse P388 cells after 4 days. The following applies: P388, 96 h, read-out: ED50 (the source's name). The class given is functional.
In a further assay the test system is L1210. Description: Cytotoxicity against mouse L1210 cells after 4 days. It is filed as functional. As to conditions: L1210, 96 h, read-out: ED50 (the source's name).

≈ marks a conversion by molar mass, not a printed value.

`CC1=CC(=O)CC(C)(C)[C@@]1(O)CC(=O)/C(C)=C/C=C/C(C)=C/C=C/C=C(C)/C=C/C=C(\C)C=C=C1C(C)(C)C[C@H](O)C[C@@]1(C)O` [AMAROUCIAXANTHIN A]: the EC50 with P388 worked out at 150 µg/mL (≈ 244 µM); with L1210, 50 µg/mL (≈ 81.3 µM).

Consider `CC1=CC(=O)CC(C)(C)[C@@]1(O)CC(=O)/C(C)=C/C=C/C(C)=C/C=C/C=C(C)/C=C/C=C(\C)C#CC1=C(C)C[C@@H](O)CC1(C)C` [AMAROUCIAXANTHIN B], for which the values for the EC50 with P388 and in the assay with L1210 were 300 µg/mL (≈ 503 µM) and 100 µg/mL (≈ 168 µM), respectively.

In the case of `CC1=C(C#C/C(C)=C/C=C/C(C)=C/C=C/C=C(C)/C=C/C=C(\C)C(=O)C[C@@]23O[C@]2(C)C[C@@H](O)CC3(C)C)C(C)(C)C[C@H](O)C1` [HALOCYNTHIAXANTHIN], the EC50 in the assay on P388 was 12.5 µg/mL (≈ 20.9 µM); in the assay on L1210 it was 25 µg/mL (≈ 41.7 µM).
